Assay results as given in patent US9315475B2 (MERCK SHARP & DOHME CORP., priority 2011, dated 2016).
Counter-ions that a name gives are not always drawn.

Legend:
wildtype HIV-1 protease = target: T1, wildtype HIV-1 protease (Human immunodeficiency virus type 1 group M subtype B, UniProt P04585); experiment: Assay for inhibition of microbial expressed HIV protease (Pepcleav); assay type: biochemical; details: wild type HIV-1 protease expressed in E. coli, peptide substrate, pH 5.5; mean of at least two independent experiments; read-out: Pepcleav
T1 construct: the wildtype HIV-1 protease (which was expressed in Escherichia coli); made in house; host or cells: Escherichia coli
Outline: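 Cleavage of 400 μM peptide substrate Val-Ser-Gln-Asn-(βnaphthyl)Ala-Pro-Ile-Val by 20 pM wild-type enzyme (E. coli-expressed) ran 1 h at 30 °C after 30 min inhibitor preincubation, pH 5.5 acetate buffer. Inhibition derived from product peak area by C18 LC with multiple-reaction-monitoring MS after formic acid quench.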

HIV-1 (H9IIIB strain) = experiment: Antiviral acute infection assay in cell culture (Spread); assay type: cell-based; details: Human immunodeficiency virus 1, T-lymphoid, HIV-1 H9IIIB infection of MT-4 human T-lymphoid cells in 10% FBS; mean of at least two independent experiments
Description: Antiviral Assays in Cell Culture (“Spread”)
Acute Infection Assay (“Spread”) data were generated using HIV-1 (H9IIIB strain) infection of MT-4 human T-lymphoid cells in 10% FBS, and according to the methods disclosed by J. P. Vacca et al, “L-735,524: An orally bioavailable human immunodeficiency virus type 1 protease inhibitor,” Proc. Natl. Acad. Sci. USA, Vol. 91, pp. 4096-4100 (April 1994).

SMILES	IC50 (wildtype HIV-1 protease) [µM]	EC50 (HIV-1 (H9IIIB strain)) [µM]
N[C@H](C(=O)Nc1cc(F)cc(F)c1CC[C@@H]1CN[C@H](COC(=O)NCC(F)(F)F)CO1)C(c1ccc(F)cc1)c1ccc(F)cc1 [Example 247, N-(3,5-difluoro-2-{2-[(2R,5S)-5-({[(2,2,2-trifluoroethyl)carbamoyl]oxy}methyl)morpholin-2-yl]ethyl}phenyl)-4-fluoro-β-(4-fluorophenyl)-L-phenylalaninamide]	0.012	0.26
N[C@H](C(=O)Nc1cncc(F)c1CC[C@@H]1CN[C@H](COC(=O)NCC(F)(F)F)CO1)[C@H](c1ccccc1)c1ccc(F)c(F)c1 [Example 259, (βR)-β-(3,4-difluorophenyl)-N-(5-fluoro-4-{2-[(2R,5S)-5-({[(2,2,2-trifluoroethyl)carbamoyl]oxy}methyl)morpholin-2-yl]ethyl}pyridin-3-yl)-L-phenylalaninamide]	0.005	0.066
N[C@H](C(=O)Nc1cncc(F)c1CC[C@@H]1CN[C@H](COC(=O)NC[C@H]2CCCO2)CO1)C(c1ccc(F)cc1)c1ccc(F)cc1 [Example 215, 4-fluoro-β-(4-fluorophenyl)-N-[5-fluoro-4-(2-{(2R,5S)-5-[({[(2R)-tetrahydrofuran-2-ylmethyl]carbamoyl}oxy)methyl]morpholin-2-yl}ethyl)pyridin-3-yl]-L-phenylalaninamide]	0.0035	0.025
CCNC(=O)OC[C@@H]1CO[C@H](CCc2c(F)cncc2NC(=O)[C@@H](N)C(c2ccc(F)cc2)c2ccc(F)cc2)CN1 [Example 207, N-(4-{2-[(2R,5S)-5-{[(ethylcarbamoyl)oxy]methyl}morpholin-2-yl]ethyl}-5-fluoropyridin-3-yl)-4-fluoro-β-(4-fluorophenyl)-L-phenylalaninamide]	0.02	0.11
O=C(C[C@H](c1ccc(F)cc1)c1cncc(F)c1)Nc1cccc(F)c1CC[C@@H]1CN[C@H](COC(=O)NCC(F)(F)F)CO1 [Example 161, {(3S,6R)-6-[2-(2-fluoro-6-{[(3R)-3-(4-fluorophenyl)-3-(5-fluoropyridin-3-yl)propanoyl]amino}phenyl)ethyl]morpholin-3-yl}methyl (2,2,2-trifluoroethyl)carbamate]	0.012	0.07
N[C@H](C(=O)Nc1cncc(F)c1CC[C@@H]1CN[C@H](C(=O)Nc2ccccc2O)CO1)C(c1ccc(F)cc1)c1ccc(F)cc1 [Example 271, 4-fluoro-N-[5-fluoro-4-(2-{(2R,5S)-5-[(2-hydroxyphenyl)carbamoyl]morpholin-2-yl}ethyl)pyridin-3-yl]-β-(4-fluorophenyl)-L-phenylalaninamide]	0.002	0.81
COC(=O)N[C@H](C(=O)Nc1cccc(F)c1CC[C@@H]1CN[C@H](COC(=O)NCC(F)(F)F)CO1)[C@H](c1ccccc1)c1cccc(OC)c1 [Example 305, (βR)-N-(3-fluoro-2-{2-[(2R,5S)-5-({[(2,2,2-trifluoroethyl)carbamoyl]oxy}methyl)morpholin-2-yl]ethyl}phenyl)-3-methoxy-Nα-(methoxy-carbonyl)-β-phenyl-L-phenylalaninamide]	0.23	0.042
COC(=O)N[C@H](C(=O)Nc1cncc(F)c1CC[C@@H]1CN[C@H](COC(=O)NCC(F)(F)F)CO1)C(c1cccc(F)c1)c1cccc(F)c1 [Example 280, 3-fluoro-β-(3-fluorophenyl)-N-(5-fluoro-4-{2-[(2R,5S)-5-({[(2,2,2-trifluoroethyl)carbamoyl]oxy}methyl)morpholin-2-yl]ethyl}pyridin-3-yl)-Nα-(methoxycarbonyl)-L-phenylalaninamide]	0.001	0.015
N[C@H](C(=O)Nc1cccc(F)c1CC[C@@H]1CN[C@H](COC(=O)NCC(F)(F)F)CO1)[C@H](c1ccccc1)c1ccc2ccccc2c1 [Example 241, (βR)-N-(3-fluoro-2-{2-[(2R,5S)-5-({[(2,2,2-trifluoroethyl)carbamoyl]oxy}methyl)morpholin-2-yl]ethyl}phenyl)-β-naphthalen-2-yl-L-phenylalaninamide]	0.032	0.36
COC(=O)N[C@H](C(=O)Nc1cncc(F)c1CC[C@@H]1CN[C@H](COC(=O)NCC(F)(F)F)CO1)[C@H](c1ccc(F)cc1)c1ccc(Br)cc1 [Example 298, (βR)-β-(4-bromophenyl)-4-fluoro-N-(5-fluoro-4-{2-[(2R,5S)-5-({[(2,2,2-trifluoroethyl)carbamoyl]oxy}methyl)morpholin-2-yl]ethyl}pyridin-3-yl)-Nα-(methoxycarbonyl)-L-phenylalaninamide]	0.0003	0.014
N[C@H](C(=O)Nc1cncc(F)c1CC[C@@H]1CN[C@H](COC(=O)NCC(F)(F)F)CO1)C(c1ccc(F)cc1)c1ccc(F)cc1 [Example 79, 4-Fluoro-β-(4-fluorophenyl)-N-(5-fluoro-4-{2-[(2R,5S)-5-({[(2,2,2-trifluoroethyl)carbamoyl]oxy}methyl)morpholin-2-yl]ethyl}pyridin-3-yl)-L-phenylalaninamide trihydrochloride]	0.0036	0.037
N[C@H](C(=O)Nc1cncc(F)c1CC[C@@H]1CN[C@H](COC(=O)NCc2nc3ccncc3[nH]2)CO1)C(c1ccc(F)cc1)c1ccc(F)cc1 [Example 242, 4-fluoro-N-(5-fluoro-4-{2-[(2R,5S)-5-({[(3H-imidazo[4,5-c]pyridin-2-ylmethyl)carbamoyl]oxy}methyl)morpholin-2-yl]ethyl}pyridin-3-yl)-β-(4-fluorophenyl)-L-phenylalaninamide]	0.025	0.6
N[C@H](C(=O)Nc1cncc(F)c1CC[C@@H]1CN[C@H](COC(=O)NCC(F)(F)F)CO1)[C@H](c1ccc(F)cc1)c1cccc(F)c1 (stereo in doubt) [Example 92]	0.0044	0.043
N[C@H](C(=O)Nc1cncc(F)c1CC[C@@H]1CN[C@H](COC(=O)NCC(F)(F)F)CO1)[C@@H](c1ccc(Cl)cc1)c1cc(F)cc(F)c1 [Example 97, (βS)-β-(4-Chlorophenyl)-3,5-difluoro-N-(5-fluoro-4-{2-[(2R,5S)-5-({[(2,2,2-trifluoroethyl)carbamoyl]oxy}methyl)morpholin-2-yl]ethyl}pyridin-3-yl)-L-phenylalaninamide]	0.0008	0.017
N[C@H](C(=O)Nc1cncc(F)c1CC[C@@H]1CN[C@H](COC(=O)NCC(F)(F)F)CO1)[C@H](c1ccccc1)c1ccc(Cl)cc1 [Example 95, (βR)-β-(4-Chlorophenyl)-N-(5-fluoro-4-{2-[(2R,5S)-5-({[(2,2,2-trifluoroethyl)carbamoyl]oxy}methyl)morpholin-2-yl]ethyl}pyridin-3-yl)-L-phenylalaninamide]	0.0004	0.016
CCC(CO)NC(=O)OC[C@@H]1CO[C@H](CCc2c(F)cncc2NC(=O)CC(c2ccc(F)cc2)c2ccc(F)cc2)CN1 (stereo partly drawn) [Example 165, {(3S,6R)-6-[2-(3-{[3,3-bis(4-fluorophenyl)propanoyl]amino}-5-fluoropyridin-4-yl)ethyl]morpholin-3-yl}methyl [1-(hydroxy-methyl)propyl]carbamate]	0.0045	0.04
N[C@H](C(=O)Nc1cccc(F)c1CC[C@@H]1CN[C@H](COC(=O)NCC(F)(F)F)CO1)[C@@H](c1ccc(Cl)cc1)c1cccc(F)c1 [Example 274, (βS)-β-(4-chlorophenyl)-3-fluoro-N-(3-fluoro-2-{2-[(2R,5S)-5-({[(2,2,2-trifluoroethyl)carbamoyl]oxy}methyl)morpholin-2-yl]ethyl}phenyl)-L-phenylalaninamide]	0.0013	0.011
CCC[C@H](c1ccccc1)[C@H](NC(=O)OC)C(=O)Nc1cccc(F)c1CC[C@@H]1CN[C@H](COC(=O)NCC(F)(F)F)CO1 [Example 293, (βR)-N-(3-fluoro-2-{2-[(2R,5S)-5-({[(2,2,2-trifluoroethyl)carbamoyl]oxy}methyl)morpholin-2-yl]ethyl}phenyl)-Nα-(methoxycarbonyl)-β-propyl-L-phenylalaninamide]	0.1	0.08
N[C@H](C(=O)Nc1cncc(F)c1CC[C@@H]1CN[C@H](COC(=O)NCC(F)(F)F)CO1)[C@H](c1ccc(F)cc1)c1ccc(Cl)cc1 [Example 267, (βR)-β-(4-chlorophenyl)-4-fluoro-N-(5-fluoro-4-{2-[(2R,5S)-5-({[(2,2,2-trifluoroethyl)carbamoyl]oxy}methyl)morpholin-2-yl]ethyl}pyridin-3-yl)-L-phenylalaninamide]	0.0031	0.051
COC(=O)N[C@H](C(=O)Nc1cccc(F)c1CC[C@@H]1CN[C@H](COC(=O)NCC(F)(F)F)CO1)[C@H](c1ccccc1)c1ccc(F)c(F)c1 [Example 294, (βR)-β-(3,4-difluorophenyl)-N-(3-fluoro-2-{2-[(2R,5S)-5-({[(2,2,2-trifluoroethyl)carbamoyl]oxy}methyl)morpholin-2-yl]ethyl}phenyl)-Nα-(methoxycarbonyl)-L-phenylalaninamide]	0.0038	0.014
N[C@H](C(=O)Nc1cccc(F)c1CC[C@@H]1CN[C@H](COC(=O)NCC(F)(F)F)CO1)[C@@H](c1ccc(F)cc1)c1cccc(OC(F)(F)F)c1 [Example 263, (βS)-4-fluoro-N-(3-fluoro-2-{2-[(2R,5S)-5-({[(2,2,2-trifluoroethyl)carbamoyl]oxy}methyl)morpholin-2-yl]ethyl}phenyl)-β-[3-(trifluoromethoxy)phenyl]-L-phenylalaninamide]	0.0037	0.048
